Where a SMILES comes first, the peptide text is derived from it. Bridges are numbered along the chain shown (N, C = ends). [ ]: non-standard residue; d: D form. The star is where a group is joined. hPhe(3,5-F2-4-CF3) = N[C@@H](CCc1cc(F)c(C(F)(F)F)c(F)c1)C(=O)O; hPhe(3-Cl-4-CF3) = N[C@@H](CCc1ccc(C(F)(F)F)c(Cl)c1)C(=O)O; NPrPhe(4-CF3) = CCCN[C@@H](Cc1ccc(C(F)(F)F)cc1)C(=O)O; NMeGly(cPent) = CN[C@H](C(=O)O)C1CCCC1; Hyp = O=C(O)[C@@H]1C[C@@H](O)CN1; NMeD = CN[C@@H](CC(=O)O)C(=O)O; NMeL = CN[C@@H](CC(C)C)C(=O)O; αMeS = C[C@](N)(CO)C(=O)O; Morpholide = C1CN(*)CCO1; Ac5c = NC1(C(=O)O)CCCC1; Aze = O=C(O)[C@@H]1CCN1; Ac4c = NC1(C(=O)O)CCC1; NPrGly = CCCNCC(=O)O; Sar = CNCC(=O)O
Experiments:
[1] = biological target: GDP-bound NRAS wild-type protein (Homo sapiens, UniProt P01111); experiment: Binding to NRAS by surface plasmon resonance (SPR), Single Cycle Kinetics; details: for NRAS/KRAS (ratio of KD value with respect to NRAS to KD value with respect to KRAS): GDP-bound NRAS wild-type vs GDP-bound KRAS wild-type
GDP-bound NRAS wild-type protein, sequence (P01111 whole entry): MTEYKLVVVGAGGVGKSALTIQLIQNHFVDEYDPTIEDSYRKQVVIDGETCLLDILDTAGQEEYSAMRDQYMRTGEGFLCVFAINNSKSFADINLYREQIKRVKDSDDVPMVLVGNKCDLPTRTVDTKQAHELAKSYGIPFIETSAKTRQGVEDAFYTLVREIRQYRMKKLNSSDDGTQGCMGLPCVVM

[2] = biological target: GDP-bound HRAS wild-type protein (Homo sapiens, UniProt P01112); experiment: Binding to HRAS by surface plasmon resonance (SPR), Single Cycle Kinetics; details: for HRAS/KRAS (ratio of KD value with respect to HRAS to KD value with respect to KRAS): GDP-bound HRAS wild-type vs GDP-bound KRAS wild-type
GDP-bound HRAS wild-type protein, sequence (P01112 whole entry): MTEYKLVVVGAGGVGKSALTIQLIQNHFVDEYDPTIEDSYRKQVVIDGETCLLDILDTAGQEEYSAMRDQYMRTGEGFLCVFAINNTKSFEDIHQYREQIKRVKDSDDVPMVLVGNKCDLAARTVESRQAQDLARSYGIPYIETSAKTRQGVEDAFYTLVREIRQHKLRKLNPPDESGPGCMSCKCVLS

[3] = KD ratio NRAS/KRAS, class symbols
[4] = KD ratio HRAS/KRAS, class symbols

CCCN1CC(=O)NC2(CCCC2)C(=O)N(C)[C@@H](C2CCCC2)C(=O)N(C)[C@H](C(=O)N2CCOCC2)CC(=O)N(C)[C@@H](CC(C)C)C(=O)N[C@@H]([C@@H](C)CC)C(=O)N(C)CC(=O)N(C)CC(=O)N(CCC)[C@@H](Cc2ccc(C(F)(F)F)cc2)C(=O)N(C)CC(=O)N[C@@H](CCc2ccc(C(F)(F)F)c(Cl)c2)C1=O [PP0267] ([NMeL]I[Sar][Sar][NPrPhe(4-CF3)][Sar][hPhe(3-Cl-4-CF3)][NPrGly][Ac5c][NMeGly(cPent)][NMeD]-Morpholide; lactam N-11)
NRAS/KRAS (ratio of KD for GDP-bound NRAS wild-type to KD for KRAS) ([1]; KD ratio NRAS/KRAS, SPR): B (a compound having 3 or more and less than 10 is denoted as B)
HRAS/KRAS (ratio of KD for GDP-bound HRAS wild-type to KD for KRAS) ([2]; KD ratio HRAS/KRAS, SPR): B (a compound having 3 or more and less than 10 is denoted as B)

CCO[C@@H]1C[C@H]2C(=O)NC3(CCC3)C(=O)N(C)[C@@H](C3CCCC3)C(=O)N(C)[C@H](C(=O)N(C)C)CC(=O)N(C)[C@@H](CC(C)(C)C)C(=O)N[C@@H]([C@@H](C)CC)C(=O)N(C)CC(=O)N(C)[C@H]3CCCCCN(C3=O)[C@@H](Cc3ccc(C(F)(F)F)cc3)C(=O)N(C)CC(=O)N[C@@H](CCc3cc(F)c(C(F)(F)F)c(F)c3)C(=O)N2C1 [PP0669]
NRAS/KRAS (ratio of KD value with respect to GDP-bound NRAS wild-type protein to KD value with respect to KRAS) ([1]; KD ratio NRAS/KRAS, SPR): B (a compound having 3 or more and less than 10 is denoted as B)
HRAS/KRAS (ratio of KD value with respect to GDP-bound HRAS wild-type protein to KD value with respect to KRAS) ([2]; KD ratio HRAS/KRAS, SPR): B (a compound having 3 or more and less than 10 is denoted as B)

CCC(CC)[C@H]1C(=O)N(C)[C@H](C(=O)N(C)C)CC(=O)N(C)[C@@H](COC)C(=O)N[C@@H]([C@@H](C)CC)C(=O)N(C)CC(=O)N(C)[C@H]2C/C=C\CCN(C2=O)[C@@H](Cc2ccc(C)cc2)C(=O)N(C)CC(=O)N[C@@H](CCc2ccc(Cl)c(Cl)c2)C(=O)N2CCCCC[C@H]2C(=O)NC2(CC(C)(C)C2)C(=O)N1C [PP2974]
NRAS/KRAS (ratio of KD value with respect to GDP-bound NRAS wild-type protein to KD value with respect to KRAS) ([1]; KD ratio NRAS/KRAS, SPR, GDP-bound wild-type proteins): A (a compound having 10 or more and less than 20 is denoted as A)
HRAS/KRAS (ratio of KD value with respect to GDP-bound HRAS wild-type protein to KD value with respect to KRAS) ([2]; KD ratio HRAS/KRAS, SPR, GDP-bound wild-type proteins): A (a compound having 10 or more and less than 20 is denoted as A)

CCO[C@@H]1C[C@H]2C(=O)NC3(CCC3)C(=O)N(C)[C@@H](C3CCCCC3)C(=O)N(C)[C@H](C(=O)N(C)C)CC(=O)N(C)[C@@H](CC)C(=O)N[C@@H]([C@@H](C)CC)C(=O)N(C)CC(=O)N(C)[C@H]3C/C=C\CCN(C3=O)[C@@H](Cc3ccc(C(F)(F)F)cc3)C(=O)N(C)CC(=O)N[C@@H](CCc3cc(F)c(C(F)(F)F)c(F)c3)C(=O)N2C1 [PP1086]
NRAS/KRAS (ratio of KD value with respect to NRAS to KD value with respect to KRAS) ([1]; KD ratio, SPR): AA (a compound having 20 or more is denoted as AA)
HRAS/KRAS (ratio of KD value with respect to HRAS to KD value with respect to KRAS) ([2]; KD ratio, SPR): A (a compound having 10 or more and less than 20 is denoted as A)

CCC(CC)[C@H]1C(=O)N(C)[C@H](C(=O)N(C)C)CC(=O)N(C)[C@@H](C(C)C)C(=O)N[C@@H]([C@@H](C)CC)C(=O)N(C)CC(=O)N(C)[C@H]2C/C=C\CCN(C2=O)[C@@H](CC2CCC(F)(F)CC2)C(=O)N(C)CC(=O)N[C@@H](CCc2cc(F)c(C(F)(F)F)c(F)c2)C(=O)N2C[C@@H](C)C[C@H]2C(=O)NC2(CC(C)(C)C2)C(=O)N1C [PP2496]
NRAS/KRAS (ratio of KD value with respect to NRAS to KD value with respect to KRAS) ([1]; SPR): A (a compound having 10 or more and less than 20 is denoted as A)
HRAS/KRAS (ratio of KD value with respect to HRAS to KD value with respect to KRAS) ([2]; SPR): A (a compound having 10 or more and less than 20 is denoted as A)

CCCN1C(=O)[C@@H]2CCN2C(=O)CN(C)C(=O)[C@H]([C@@H](C)CC)NC(=O)[C@H](CC(C)C)N(C)C(=O)C[C@@H](C(=O)N2CCOCC2)N(C)C(=O)[C@H](C2CCCC2)N(C)C(=O)[C@](C)(COC)NC(=O)[C@@H]2CCCN2C(=O)[C@H](CCc2cc(F)c(C(F)(F)F)c(F)c2)NC(=O)CN(C)C(=O)[C@@H]1Cc1ccc(C(F)(F)F)cc1 [PP0798] ([NMeL]I[Sar][Aze][NPrPhe(4-CF3)][Sar][hPhe(3,5-F2-4-CF3)]P[αMeS](Me)[NMeGly(cPent)][NMeD]-Morpholide; lactam N-11)
NRAS/KRAS (ratio of KD value with respect to GDP-bound NRAS wild-type protein to KD value with respect to KRAS) ([1]; KD ratio NRAS/KRAS, SPR): C (A compound having a KD ratio of 0.1 or more and less than 3 is denoted as C)
HRAS/KRAS (ratio of KD value with respect to GDP-bound HRAS wild-type protein to KD value with respect to KRAS) ([2]; KD ratio HRAS/KRAS, SPR): B (a compound having 3 or more and less than 10 is denoted as B)

CCC[C@H]1C(=O)N[C@@H]([C@@H](C)CC)C(=O)N(C)CC(=O)N(C)[C@H]2C/C=C\CCN(C2=O)[C@@H](Cc2ccc(C(F)F)cc2)C(=O)N(C)CC(=O)N[C@@H](CCc2ccc(Cl)c(Cl)c2)C(=O)N2C[C@H](OC3CCC3)C[C@H]2C(=O)NC2(CC(C)(C)C2)C(=O)N(C)[C@@H](C(CC)CC)C(=O)N(C)[C@H](C(=O)N(C)C)CC(=O)N1C [PP2643]
NRAS/KRAS (ratio of KD value with respect to GDP-bound NRAS wild-type protein to KD value with respect to KRAS) [1, 3]: AA (a compound having 20 or more is denoted as AA)
HRAS/KRAS (ratio of KD value with respect to GDP-bound HRAS wild-type protein to KD value with respect to KRAS) [2, 4]: A (a compound having 10 or more and less than 20 is denoted as A)

CCC(CC)[C@H]1C(=O)N(C)[C@H](C(=O)N(C)C)CC(=O)N(C)[C@@H](COC)C(=O)N[C@@H]([C@@H](C)CC)C(=O)N(C)CC(=O)N(C)[C@H]2C/C=C\CCN(C2=O)[C@@H](Cc2ccc(C)cc2)C(=O)N(C)CC(=O)N[C@@H](CCc2ccc(C(F)(F)F)c(OC)c2)C(=O)N2CCOC[C@H]2C(=O)NC2(CC(C)(C)C2)C(=O)N1C [PP2938]
NRAS/KRAS (ratio of KD value with respect to GDP-bound NRAS wild-type protein to KD value with respect to KRAS) [1, 3]: AA (a compound having 20 or more is denoted as AA)
HRAS/KRAS (ratio of KD value with respect to GDP-bound HRAS wild-type protein to KD value with respect to KRAS) [2, 4]: A (a compound having 10 or more and less than 20 is denoted as A)

CC[C@H](C)[C@@H]1NC(=O)[C@H](CC)N(C)C(=O)C[C@@H](C(=O)N(C)C)N(C)C(=O)[C@H](C2CCCC2)N(C)C(=O)C2(CCC2)NC(=O)[C@@H]2C[C@@H](N3CCC(F)(F)CC3)CN2C(=O)[C@H](CCc2cc(F)c(C(F)(F)F)c(F)c2)NC(=O)CN(C)C(=O)[C@H](Cc2ccc(C(F)(F)F)cc2)N2CCCC[C@@H](C2=O)N(C)C(=O)CN(C)C1=O [PP0656]
NRAS/KRAS (ratio of KD value with respect to GDP-bound NRAS wild-type protein to KD value with respect to KRAS) ([1]; KD ratio NRAS/KRAS, SPR): C (A compound having a KD ratio of 0.1 or more and less than 3 is denoted as C)
HRAS/KRAS (ratio of KD value with respect to GDP-bound HRAS wild-type protein to KD value with respect to KRAS) ([2]; KD ratio HRAS/KRAS, SPR): C (A compound having a KD ratio of 0.1 or more and less than 3 is denoted as C)

CCCN1C(=O)CN(C)C(=O)CNC(=O)[C@H]([C@@H](C)CC)NC(=O)[C@H](CC(C)C)N(C)C(=O)C[C@@H](C(=O)N(C)C)N(C)C(=O)[C@H](C2CCCC2)N(C)C(=O)C2(CCC2)NC(=O)[C@@H]2C[C@@H](OCC)CN2C(=O)[C@H](CCc2ccc(C(F)(F)F)c(Cl)c2)NC(=O)CN(C)C(=O)[C@@H]1Cc1ccc(C(F)(F)F)cc1 [PP0422] ([NMeL]IG[Sar][NPrPhe(4-CF3)][Sar][hPhe(3-Cl-4-CF3)][Hyp](Et)[Ac4c][NMeGly(cPent)][NMeD]-NMe2; lactam N-11)
NRAS/KRAS (ratio of KD value with respect to GDP-bound NRAS wild-type protein to KD value with respect to KRAS) ([1]; KD ratio NRAS/KRAS, SPR): B (a compound having 3 or more and less than 10 is denoted as B)
HRAS/KRAS (ratio of KD value with respect to GDP-bound HRAS wild-type protein to KD value with respect to KRAS) ([2]; KD ratio HRAS/KRAS, SPR): B (a compound having 3 or more and less than 10 is denoted as B)

CCO[C@@H]1C[C@H]2C(=O)NC3(CCC3)C(=O)N(C)[C@@H](C3CCCC3)C(=O)N(C)[C@H](C(=O)N(C)CCOC)CC(=O)N(C)[C@@H](CC3CC3)C(=O)N[C@@H]([C@@H](C)CC)C(=O)N(C)CC(=O)N(C)[C@H]3C/C=C\CCN(C3=O)[C@@H](Cc3ccc(C(F)(F)F)cc3)C(=O)N(C)CC(=O)N[C@@H](CCc3ccc4sccc4c3)C(=O)N2C1 [PP1328]
NRAS/KRAS (ratio of KD value for GDP-bound NRAS wild-type protein to KD value for KRAS) ([1]; SPR, KD ratio class): A (a compound having 10 or more and less than 20 is denoted as A)
HRAS/KRAS (ratio of KD value for GDP-bound HRAS wild-type protein to KD value for KRAS) ([2]; SPR, KD ratio class): A (a compound having 10 or more and less than 20 is denoted as A)

Source: patent publication US20250230193A1, “CYCLIC COMPOUND HAVING SELECTIVE KRAS INHIBITORY EFFECT ON HRAS AND NRAS” (CHUGAI SEIYAKU KABUSHIKI KAISHA, priority 2022, published 2025)
